Measurements from DBAASP.
≈ marks a conversion by molar mass, not a printed value. Blank lines part the entries; values can stand above or below the compound they belong to.

Columns and labels:
Assay in all cases: ≥ marks a high value that may be exact or a test limit, other limits are often not marked, values filed in µg/mL are converted to µM
[1] = tested on: Streptococcus mutans
[2] = tested on: Batrachochytrium dendrobatidis JEL-197
[3] = tested on: Candida albicans ATCC 90028
[4] = tested on: Escherichia coli ATCC 25726
[5] = tested on: Staphylococcus aureus ATCC 25923
[6] = tested on: Bacillus megaterium Bm11
[7] = tested on: Bacillus subtilis ATCC 6633
[8] = tested on: Escherichia coli D21
[9] = tested on: Proteus vulgaris OX19 ATCC 6380
[10] = tested on: Pseudomonas aeruginosa OT97
[11] = tested on: Shigella flexneri ATCC 203
[12] = tested on: Staphylococcus aureus Cowan 1
[13] = tested on: Staphylococcus aureus JC-1
[14] = tested on: Bacillus subtilis AB91021
[15] = tested on: Bacillus thuringiensis AB92037
[16] = tested on: Escherichia coli AB94012
[17] = tested on: Pseudomonas aeruginosa AB93066
[18] = tested on: Staphylococcus aureus AB94004
[19] = tested on: Staphylococcus aureus P1369
[20] = tested on: Staphylococcus aureus P1374
[21] = tested on: Staphylococcus aureus P1381
[22] = tested on: Staphylococcus aureus P1383
[23] = tested on: Staphylococcus aureus P1386
[24] = tested on: Staphylococcus aureus P969
[25] = tested on: Staphylococcus epidermidis P1111
[26] = tested on: Staphylococcus epidermidis P1368
[27] = tested on: Staphylococcus epidermidis P1389
[28] = tested on: Staphylococcus sp.
[29] = tested on: Candida albicans ATCC 20032
[30] = tested on: Escherichia coli ATCC 25922
[31] = tested on: Escherichia coli ML-35p
[32] = tested on: Escherichia coli
[33] = tested on: Pseudomonas aeruginosa 08031014
[34] = tested on: Pseudomonas aeruginosa ATCC 27853
[35] = tested on: Pseudomonas aeruginosa PAO1
[36] = tested on: Staphylococcus aureus ATCC 43300
[37] = tested on: Enterobacter cloacae NHTCC 53001
[38] = tested on: Klebsiella pneumoniae KK3 9904
[39] = tested on: Staphylococcus aureus NCTC 8325

- MIC [6]: ≥ 4800 µM
- MIC [7]: ≥ 6000 µM
- MIC [8]: ≥ 6000 µM
- MIC [9]: ≥ 6000 µM
- MIC [10]: ≥ 6000 µM
- MIC [11]: ≥ 4800 µM
- MIC [12]: ≥ 6000 µM
- MIC [13]: ≥ 3200 µM
Compound: CC[C@H](C)[C@H](NC(=O)[C@H](CCCCN)NC(=O)[C@@H](NC(=O)[C@@H](NC(=O)[C@H](CCC(N)=O)NC(=O)CNC(=O)[C@H](Cc1cnc[nH]1)NC(=O)[C@H](CCC(N)=O)NC(=O)[C@H](CC(N)=O)NC(=O)[C@H](CCC(N)=O)NC(=O)[C@@H](N)C(C)C)C(C)C)C(C)C)C(=O)N[C@@H](Cc1ccccc1)C(=O)N[C@@H](Cc1cnc[nH]1)C(=O)N[C@@H](Cc1cnc[nH]1)C(=O)O [VQNQHGQVVKIFHH]

- MIC [14]: 12.3 µM (≈ 25 µg/mL)
- MIC [15]: 12.3 µM (≈ 25 µg/mL)
- MIC [16]: 6.15 µM (≈ 12.5 µg/mL)
- MIC [17]: ≥ 49.2 µM
- MIC [18]: 2.46 µM (≈ 5 µg/mL)
- MIC [19]: 3.94 µM (≈ 8 µg/mL)
- MIC [20]: 3.94 µM (≈ 8 µg/mL)
- MIC [21]: 9.84 µM (≈ 20 µg/mL)
- MIC [22]: 4.92 µM (≈ 10 µg/mL)
- MIC [23]: 12.3 µM (≈ 25 µg/mL)
- MIC [24]: 19.7 µM (≈ 40 µg/mL)
- MIC [25]: 9.84 µM (≈ 20 µg/mL)
- MIC [26]: 3.94 µM (≈ 8 µg/mL)
- MIC [27]: 3.94 µM (≈ 8 µg/mL)
- MIC [28]: 2.46 µM (≈ 5 µg/mL)
Compound: CC[C@H](C)[C@H](NC(=O)[C@H](CC(C)C)NC(=O)[C@H](CO)NC(=O)[C@H](CCCCN)NC(=O)[C@@H](NC(=O)[C@H](CC(C)C)NC(=O)[C@H](CCCN=C(N)N)NC(=O)[C@H](Cc1ccccc1)NC(=O)[C@@H](N)CC(C)C)[C@@H](C)CC)C(=O)N[C@@H](CCCCN)C(=O)N[C@@H](CCCN=C(N)N)C(=O)N[C@@H](CC(C)C)C(=O)N[C@H](C(=O)N[C@@H](CO)C(=O)N[C@@H](C)C(=O)N[C@@H](Cc1ccccc1)C(=O)N[C@@H](CCCCN)C(N)=O)C(C)C [LFRLIKSLIKRLVSAFK]

- MIC [7]: ≥ 39.4 µM
- MIC [29]: 3.7 µM (≈ 9.38 µg/mL)
- MIC [30]: 7.39 µM (≈ 18.8 µg/mL)
- MIC [31]: 7.39 µM (≈ 18.8 µg/mL)
- MIC [32]: 20.9 µM (≈ 53 µg/mL)
- MIC [33]: 14.8 µM (≈ 37.5 µg/mL)
- MIC [34]: 3.7 µM (≈ 9.38 µg/mL)
- MIC [35]: 3.7 µM (≈ 9.38 µg/mL)
- MIC [5]: 3.7 µM (≈ 9.38 µg/mL)
- MIC [36]: 3.7 µM (≈ 9.38 µg/mL)
Compound: CC[C@H](C)[C@H](NC(=O)[C@H](CCCCN)NC(=O)[C@@H](NC(=O)[C@H](Cc1c[nH]c2ccccc12)NC(=O)[C@H](CS)NC(=O)[C@H](CCCNC(=N)N)NC(=O)[C@@H]1CCCN1C(=O)[C@H](CCCNC(=N)N)NC(=O)[C@H](CC(C)C)NC(=O)[C@H](CO)NC(=O)[C@@H](N)CCCCN)[C@@H](C)CC)C(=O)N[C@@H](CCCCN)C(=O)N[C@@H](Cc1ccccc1)C(=O)N[C@@H](CCCNC(=N)N)C(=O)N[C@@H](CS)C(=O)N[C@@H](CCCCN)C(=O)N[C@@H](CO)C(=O)N[C@@H](CC(C)C)C(=O)N[C@@H](CCCCN)C(=O)N[C@@H](Cc1ccccc1)C(=O)O [KSLRPRCWIKIKFRCKSLKF]

The remaining lines, values behind:

Compound: CC[C@H](C)[C@H](NC(=O)[C@H](CCC(=O)O)NC(=O)[C@H](CCCCN)NC(=O)[C@@H](NC(=O)[C@H](CC(N)=O)NC(=O)[C@H](CCC(=O)O)NC(=O)[C@H](C)NC(=O)[C@H](CC(C)C)NC(=O)[C@@H](N)CCCCN)C(C)C)C(=O)N[C@@H](CC(C)C)C(=O)N[C@@H](CCCN=C(N)N)C(=O)O [KLAENVKEILR]
- MIC [1]: ≥ 190 µM

Compound: CC[C@H](C)[C@H](NC(=O)CN)C(=O)N[C@@H](Cc1ccccc1)C(=O)N[C@@H](CO)C(=O)N[C@@H](C)C(=O)N[C@@H](CC(C)C)C(=O)N[C@@H](C)C(=O)N[C@@H](C)C(=O)NCC(=O)N[C@H](C(=O)N[C@@H](CCCCN)C(=O)N[C@@H](CC(C)C)C(=O)N[C@@H](CC(C)C)C(=O)NCC(=O)N[C@@H](CC(N)=O)C(=O)N[C@H](C(=O)N[C@@H](CC(C)C)C(=O)N[C@@H](Cc1ccccc1)C(=O)N[C@@H](CCCCN)C(=O)N[C@@H](CCSC)C(=O)N[C@@H](C)C(=O)NCC(=O)N[C@@H](CCCCN)C(=O)N[C@@H](C)C(=O)NCC(=O)N[C@@H](C)C(=O)N[C@@H](CCC(=O)O)C(=O)N[C@@H](Cc1cnc[nH]1)C(=O)N[C@@H](CC(C)C)C(=O)N[C@@H](C)C(=O)N[C@H]1CSSC[C@@H](C(=O)O)NC(=O)[C@H](CCC(N)=O)NC(=O)[C@H](CC(N)=O)NC(=O)[C@H]([C@@H](C)O)NC(=O)[C@H](C)NC(=O)[C@H](CCCCN)NC1=O)[C@@H](C)O)C(C)C [GIFSALAAGVKLLGNTLFKMAGKAGAEHLACKATNQC]
- MIC [2]: 12.5 µM (≈ 46.3 µg/mL)
- MIC [3]: ≥ 50 µM
- MIC [4]: 25 µM (≈ 92.6 µg/mL)
- MIC [5]: 12.5 µM (≈ 46.3 µg/mL)

Compound: CC[C@H](C)[C@H](NC(=O)[C@H](Cc1cnc[nH]1)NC(=O)[C@H](CCCCN)NC(=O)CNC(=O)[C@H](C)NC(=O)[C@@H](NC(=O)[C@H](CCCCN)NC(=O)[C@H](CC(C)C)NC(=O)[C@@H](NC(=O)CNC(=O)[C@H](CCCCN)NC(=O)[C@H](CC(C)C)NC(=O)[C@@H](NC(=O)[C@H](CO)NC(=O)[C@H](CCSC)NC(=O)[C@H](CC(C)C)NC(=O)CN)C(C)C)C(C)C)[C@@H](C)O)C(=O)N[C@@H](Cc1ccccc1)C(=O)N[C@@H](CCCCN)C(=O)N[C@@H](CC(N)=O)C(=O)N[C@H](C(=O)NCC(=O)NCC(=O)N[C@@H](CO)C(=O)N[C@@H](CC(C)C)C(=O)N[C@@H](CC(C)C)C(=O)N[C@@H](CC(=O)O)C(=O)N[C@@H](CCC(N)=O)C(=O)N[C@@H](C)C(=O)N[C@@H](CCCCN)C(=O)N[C@H]1CSSC[C@@H](C(=O)O)NC(=O)[C@H](CCC(N)=O)NC(=O)CNC(=O)[C@H]([C@@H](C)O)NC(=O)[C@H]([C@@H](C)CC)NC(=O)[C@H](CCCCN)NC1=O)C(C)C [GLMSVLKGVLKTAGKHIFKNVGGSLLDQAKCKITGQC]
- MIC [3]: ≥ 100 µM
- MIC [37]: 6 µM (≈ 23.1 µg/mL)
- MIC [30]: 3 µM (≈ 11.5 µg/mL)
- MIC [38]: 6 µM (≈ 23.1 µg/mL)
- MIC [34]: 3 µM (≈ 11.5 µg/mL)
- MIC [39]: 25 µM (≈ 96.1 µg/mL)
